Reference: US9512139B2, “Conformationally constrained, fully synthetic macrocyclic compounds” (POLYPHOR AG, priority 2009, dated 2016)

Key:
[1] = in vitro; format: in vitro ADME, mouse; conditions: plasma; for Plasma Stability 240 min mouse [% remain.]: 4 h
Procedure: Example compounds were dissolved in DMSO/H2O 90:10 to a final concentration of 10 mM for plasma stability determination and metabolic stability determination.
Human plasma (3-5 donors, Blutspendedienst SRK, Basel) and CD-1 mouse plasma (mixed gender pool >50 animals, Innovative Research, CA, USA) are both sodium citrate stabilized. The assay is performed in triplicates at 10 μM compound concentration and 37° C. Samples are taken at 0, 15, 60, and 240 minutes and stopped by precipitation with 2 volumes of acetonitrile. The supernatant is collected, evaporated and reconstituted in a 5% acetonitrile solution to be analyzed by HPLC/MS/MS. The resulting peak area counts are expressed in percent of the 0 value and used to determine the endpoint stability in % and the half life in minutes. In order to monitor assay integrity the degradation of propantheline is assayed with every experimental set.

[2] = Metabolic stability assay, human microsomes; format: in vitro ADME; conditions: human, microsomes; for Metabolic Stability 60 min hum [% remain.]: 1 h; for half-life at 10 µM: both sexes
Procedure: (§1) 4. Plasma and Metabolic Stability Assays
(§2) The assays were conducted according to literature precedents (F. P. Guengerich, Analysis and Characterization of Enzymes; in: Principles and Methods of Toxicology; A. W. Hayes (Ed.) Raven Press: New York, 1989, 777-813; R. Singh et al., In vitro metabolism of a potent HIV-protease inhibitor (141W94) using rat, monkey and human liver S9, Rapid Commun. Mass Spectrom. 1996, 10, 1019-1026).
(§3) Metabolic Stability Assay
(§4) Microsomes from a human 50 donor mixed gender pool and 1:1 mixtures of microsomes from CD-1 mouse single-gender pools are purchased from Celsis (Belgium). The enzymatic reaction is performed in a buffer containing an NADPH regeneration system and microsomes with the following end concentrations: 100 mM potassium phosphate buffer (all from Sigma), 1 mg/mL glucose-6-phosphate, 1 mg/mL β-nicotinamide adenine dinucleotide phosphate (NADP), 0.65 mg/mL magnesium chloride, 0.8 units/mL of glucose-6-phosphate dehydrogenase (prediluted with 5 mM citrate buffer), 10 μM compound and 1 mg/ml microsomal protein. Compounds are incubated at 37° C. in duplicates and samples are taken after 0, 20 and 60 minutes. After acetonitrile precipitation (2 volumes) and HPLC/MS/MS analysis metabolic turnover is expressed in % of the initial 0 minutes value and half life T½ (min) is calculated. Verapamil for human and propranolol for mouse are used as reference and are assayed with every experimental set.

[3] = Metabolic stability assay, CD-1 mouse microsomes; format: in vitro ADME; conditions: microsomes; for Metabolic Stability 60 min mouse [% remain.]: 1 h; for half-life at 10 µM: both sexes
Procedure: as §1, §2, §3, §4

[4] = in vitro; format: in vitro ADME, human; conditions: human, plasma; for Plasma Stability 240 min hum [% remain.]: 4 h
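Wherever Plasma Stability 240 min mouse [% remain.] is given: sodium citrate stabilized mouse plasma, parent compound quantified by HPLC/MS/MS relative to its peak area at time zero, run in triplicate.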
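Wherever Plasma Stability T½ [min] mouse is given: sodium citrate stabilized mouse plasma, parent compound quantified by HPLC/MS/MS relative to its peak area at time zero, run in triplicate.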

Structure (SMILES)	Plasma Stability T½ [min] mouse ([1]; mouse)	Plasma Stability 240 min mouse [% remain.] ([1]; mouse)	Metabolic Stability T½ [min] hum [2]	Metabolic Stability 60 min hum [% remain.] [2]	Metabolic Stability T½ [min] mouse ([3]; mouse)	Metabolic Stability 60 min mouse [% remain.] ([3]; mouse)	Plasma Stability T½ [min] hum [4]	Plasma Stability 240 min hum [% remain.] [4]	Plasma Stability T½ [min] mouse ([1]; both, CD-1, mouse, 10 µM)	Plasma Stability 240 min mouse [% remain.] ([1]; both, CD-1, mouse, 10 µM)	Metabolic Stability T½ [min] hum ([2]; both, 10 µM)	Metabolic Stability 60 min hum [% remain.] ([2]; both, 10 µM)	Metabolic Stability T½ [min] mouse ([3]; both, CD-1, mouse, 10 µM)	Metabolic Stability 60 min mouse [% remain.] ([3]; both, CD-1, mouse, 10 µM)	Plasma Stability T½ [min] hum ([4]; 10 µM)	Plasma Stability 240 min hum [% remain.] ([4]; 10 µM)	half-life at 10 µM [2]	half-life at 10 µM ([3]; CD-1, mouse)	half-life at 10 µM ([1]; both sexes, CD-1, mouse)
CC(=O)N[C@H]1C[C@H]2COc3ccc(F)cc3C(=O)N(C)[C@H](C(=O)N3CCCC3)CCC(=O)N(C)CC(=O)N2C1 [Ex. 37, N-[(2S,11S,19aS)-15-fluoro-7,12-dimethyl-5,8,13-trioxo-11-(1-pyrrolidinylcarbonyl)-2,3,6,7,8,9,10,11,12,13,19,19a-dodecahydro-1H,5H-pyrrolo[2,1-c] [1,4,7,12]benzoxatriazacyclo-pentadecin-2-yl]acetamide]	> 240 min	100 % remain.	> 60 min	100 % remain.	> 60 min	100 % remain.	> 240 min	77 % remain.											
CCN(CC)[C@H]1C[C@H]2COc3ccc(F)cc3C(=O)N(C)[C@H](C(=O)N3CCCC3)CCC(=O)N(C)CC(=O)N2C1 [Ex. 43, (2S,11S,19aS)-2-(diethylamino)-15-fluoro-7,12-dimethyl-11-(1-pyrrolidinylcarbonyl)-2,3,6,7,9,10,11,12,19,19a-decahydro-1H,5H-pyrrolo [2,1-c] [1,4,7,12]benzoxatriazacyclopentadecine-5,8,13-trione]									> 240 min	89 % remain.	> 60 min	100 % remain.	> 60 min	98 % remain.	> 240 min	82 % remain.			
CCCCC(=O)N[C@@H]1C[C@H]2COc3ccc(F)cc3C(=O)N(C)[C@H](C(=O)N(C)CCN(C)C)CCC(=O)N(C)CC(=O)N2C1 [Ex. 78, (2R,11S,19aS)-N-[2-(dimethylamino)ethyl]-15-fluoro-N,7,12-trimethyl-5,8,13-trioxo-2-(pentanoylamino)-2,3,6,7,8,9,10,11,12,13,19, 19a-dodecahydro-1H,5H-pyrrolo[2,1-c][1,4,7,12]benzoxatriazacyclopentadecine-11-carboxamide]									> 240 min	100 % remain.	> 60 min	78 % remain.	> 60 min	100 % remain.	> 240 min	65 % remain.			
CN1CC(=O)N2C[C@@H](N)C[C@H]2COc2ccc(F)cc2C(=O)N(C)[C@@H](C(=O)NCc2ccc3ccccc3c2)CCC1=O [Ex. 91, (2S,11R,19aS)-2-amino-15-fluoro-7,12-dimethyl-N-(2-naphthylmethyl)-5,8,13-trioxo-2,3,6,7,8,9,10,11,12,13,19,19a-dodecahydro-1H,5H-pyrrolo[2,1-c][1,4,7,12] benzoxatriazacyclopentadecine-11-carboxamide]									> 240 min	88 % remain.	> 60 min	91 % remain.	> 60 min	95 % remain.	> 240 min	96 % remain.			
CNC(=O)[C@H]1CCC(=O)N(C)CC(=O)N2C[C@@H](NC(=O)Cc3ccc4ccccc4c3)C[C@H]2COc2ccc(F)cc2C(=O)N1C [Ex. 93, (2S,11R,19aS)-15-fluoro-N,7,12-trimethyl-2-{[2-(2-naphthyl)acetyl]amino}-5,8,13-trioxo-2,3,6,7,8,9,10,11,12, 13,19,19a-dodecahydro-1H,5H-pyrrolo[2,1-c][1,4,7,12] benzoxatriazacyclopentadecine-11-carboxamide]									> 240 min	100 % remain.		1 % remain.		15 % remain.	> 240 min	100 % remain.	0.4 h	0.483 h	
CN1CC(=O)N2C[C@@H](NC(=O)CCC(=O)O)C[C@H]2COc2ccc(F)cc2C(=O)N(C)[C@@H](C(=O)NCc2ccc3ccccc3c2)CCC1=O [Ex. 95]	> 240 min	93 % remain.	> 60 min	76 % remain.	> 60 min	94 % remain.	> 240 min	100 % remain.											
CN1CC(=O)N2C[C@@H](NC(=O)CN3CCCC3)C[C@H]2COc2ccc(F)cc2C(=O)N(C)[C@@H](C(=O)N2CCCC2)CCC1=O [Ex. 98, N-[(2S,11R,19aS)-15-fluoro-7,12-dimethyl-5,8,13-trioxo-11-(1-pyrrolidinylcarbonyl)-2,3,6,7,8,9, 10,11,12,13,19,19a-dodecahydro-1H,5H-pyrrolo[2,1-c][1,4,7,12]benzoxatriazacyclopentadecin-2-yl]-2-(1-pyrrolidinyl)acetamide]									> 240 min	78 % remain.	> 60 min	97 % remain.	> 60 min	100 % remain.	> 240 min	100 % remain.			
CCCCCCCCCC(=O)N[C@H]1C[C@H]2COc3ccc(F)cc3C(=O)N(C)[C@@H](C(=O)NCc3ccc4ccccc4c3)CCC(=O)N(C)CC(=O)N2C1 [Ex. 102, (2S,11R,19aS)-2-(decanoylamino)-15-fluoro-7,12-dimethyl-N-(2-naphthylmethyl)-5,8,13-trioxo-2,3,6,7,8,9,10,11,12,13,19,19a-dodecahydro-1H,5H-pyrrolo[2,1-c][1,4,7,12] benzoxatriazacyclopentadecine-11-carboxamide]									> 240 min	75 % remain.		4 % remain.		39 % remain.	> 240 min	65 % remain.	0.383 h	0.7 h	
CCCCC(=O)N[C@H]1C[C@H]2COc3ccc(F)cc3C(=O)N(C)[C@@H](C(=O)NCc3ccc4ccccc4c3)CCC(=O)N(C)CC(=O)N2C1 [Ex. 103, (2S,11R,19aS)-15-fluoro-7,12-dimethyl-N-(2-naphthylmethyl)-5,8,13-trioxo-2-(pentanoylamino)-2,3,6,7,8,9, 10,11,12,13,19,19a-dodecahydro-1H,5H-pyrrolo[2,1-c][1,4,7,12] benzoxatriazacyclopentadecine-11-carboxamide]										75 % remain.		22 % remain.		25 % remain.		97 % remain.	0.583 h	0.6 h	
CCCCC(=O)N[C@H]1C[C@H]2COc3cccc(c3)C(=O)N(C)CC[C@H](N)C(=O)N2C1 [Ex. 167, N-[(4S,6S,10S)-10-amino-13-methyl-9,14-dioxo-2-oxa-8,13-diazatricyclo[13.3.1.0^4,8]nonadeca-1(19),15,17-trien-6-yl] pentanamide]										17 % remain.	> 60 min	58 % remain.	> 60 min	65 % remain.					0.583 h
CN1CC(=O)N2C[C@H](NC(=O)Cc3ccc4ccccc4c3)C[C@H]2COc2ccc(cc2)C(=O)N(C)[C@H](C(=O)N2CCCC2)CCC1=O [Ex. 264, N-[(4S,6R,15S)-11,16-dimethyl-9,12,17-trioxo-15-(1-pyrrolidinylcarbonyl)-2-oxa-8,11,16-triazatricyclo[16.2.2.0^4,8]docosa-1(20),18,21-trien-6-yl]-2-(2-naphthyl)acetamide]									> 240 min	88 % remain.				32 % remain.	> 240 min	94 % remain.		0.7 h	
